From the NIST ThermoML archive (doi:10.1016/j.fluid.2010.03.017)
± gives the expanded uncertainty stated by the source.

What was measured:
[1] = cn = amount concentration of the nth substance listed, in mol/dm3; settings: 101 kPa, Liquid
[2] = specific heat capacity at constant pressure; cn = amount concentration of the nth substance listed, in mol/dm3; settings: 101 kPa, Liquid, heat flux microcalorimetry

Row | SMILES | mass density ([1]; 311.65 K, c2 = 0) | mass density ([1]; 314.65 K, c2 = 0) | specific heat capacity ([2]; 308.65 K, c2 = 0) | specific heat capacity ([2]; 311.65 K, c2 = 0) | specific heat capacity ([2]; 314.65 K, c2 = 0) | mass density ([1]; 308.65 K, c1 = 0.005) | mass density ([1]; 308.65 K, c1 = 0.01) | mass density ([1]; 308.65 K, c1 = 0.02) | mass density ([1]; 308.65 K, c1 = 0.05) | mass density ([1]; 308.65 K, c1 = 0.1) | mass density ([1]; 311.65 K, c1 = 0.005) | mass density ([1]; 311.65 K, c1 = 0.01) | mass density ([1]; 311.65 K, c1 = 0.02) | mass density ([1]; 311.65 K, c1 = 0.05) | mass density ([1]; 311.65 K, c1 = 0.1) | mass density ([1]; 314.65 K, c1 = 0.005) | mass density ([1]; 314.65 K, c1 = 0.01) | mass density ([1]; 314.65 K, c1 = 0.02) | mass density ([1]; 314.65 K, c1 = 0.05) | mass density ([1]; 314.65 K, c1 = 0.1) | further results
1 | CC#N [acetonitrile] + [Cl-].c1ccc([P+](c2ccccc2)(c2ccccc2)c2ccccc2)cc1 | 762.77 ± 2 kg/m3 | 759.726 ± 2.1 kg/m3 | 2274.3 ± 45 J/K/kg | 2280.4 ± 46 J/K/kg | 2286.5 ± 46 J/K/kg |  |  |  |  |  |  |  |  |  |  |  |  |  |  |  | mass density ([1]; 308.65 K, c2 = 0): 765.82 ± 2 kg/m3
2 | CCO [ethanol] + [Cl-].c1ccc([P+](c2ccccc2)(c2ccccc2)c2ccccc2)cc1 | 773.4 ± 1.9 kg/m3 | 770.84 ± 2 kg/m3 | 2592.8 ± 52 J/K/kg | 2653.8 ± 53 J/K/kg | 2694.1 ± 54 J/K/kg |  |  |  |  |  |  |  |  |  |  |  |  |  |  |  | mass density ([1]; 308.65 K, c2 = 0): 775.93 ± 1.9 kg/m3
3 | CO [methanol] + [Cl-].c1ccc([P+](c2ccccc2)(c2ccccc2)c2ccccc2)cc1 | 773.896 ± 1.9 kg/m3 | 771.1 ± 2 kg/m3 | 2554.5 ± 51 J/K/kg | 2577 ± 52 J/K/kg | 2621 ± 52 J/K/kg |  |  |  |  |  |  |  |  |  |  |  |  |  |  |  | mass density ([1]; 308.65 K, c2 = 0): 776.519 ± 1.9 kg/m3
4 | [Cl-].c1ccc([P+](c2ccccc2)(c2ccccc2)c2ccccc2)cc1 [tetraphenylphosphonium chloride] + CC#N |  |  |  |  |  | 767.478 ± 2 kg/m3 | 768.43 ± 2 kg/m3 | 772.35 ± 2 kg/m3 | 776.18 ± 1.9 kg/m3 | 784.14 ± 1.9 kg/m3 | 764.4 ± 2 kg/m3 | 765.22 ± 2 kg/m3 | 769.19 ± 2 kg/m3 | 773.42 ± 1.9 kg/m3 | 780.77 ± 1.9 kg/m3 | 762.76 ± 2 kg/m3 | 762.76 ± 2 kg/m3 | 766.82 ± 2 kg/m3 | 770.87 ± 2 kg/m3 | 777.19 ± 1.9 kg/m3 | specific heat capacity ([2]; 308.65 K, c1 = 0.005): 2269.4 ± 45 J/K/kg; specific heat capacity ([2]; 308.65 K, c1 = 0.01): 2269.1 ± 45 J/K/kg; specific heat capacity ([2]; 308.65 K, c1 = 0.02): 2258.9 ± 45 J/K/kg; specific heat capacity ([2]; 308.65 K, c1 = 0.05): 2255.3 ± 45 J/K/kg; specific heat capacity ([2]; 308.65 K, c1 = 0.1): 2238.7 ± 45 J/K/kg; specific heat capacity ([2]; 311.65 K, c1 = 0.005): 2275.5 ± 46 J/K/kg; specific heat capacity ([2]; 311.65 K, c1 = 0.01): 2277 ± 46 J/K/kg; specific heat capacity ([2]; 311.65 K, c1 = 0.02): 2267.8 ± 45 J/K/kg; specific heat capacity ([2]; 311.65 K, c1 = 0.05): 2265.6 ± 45 J/K/kg; specific heat capacity ([2]; 311.65 K, c1 = 0.1): 2250.6 ± 45 J/K/kg; specific heat capacity ([2]; 314.65 K, c1 = 0.005): 2281.3 ± 46 J/K/kg; specific heat capacity ([2]; 314.65 K, c1 = 0.01): 2282.6 ± 46 J/K/kg; specific heat capacity ([2]; 314.65 K, c1 = 0.02): 2274.3 ± 45 J/K/kg; specific heat capacity ([2]; 314.65 K, c1 = 0.05): 2267.5 ± 45 J/K/kg; specific heat capacity ([2]; 314.65 K, c1 = 0.1): 2257.9 ± 45 J/K/kg
5 | [Cl-].c1ccc([P+](c2ccccc2)(c2ccccc2)c2ccccc2)cc1 [tetraphenylphosphonium chloride] + CCO |  |  |  |  |  | 777.31 ± 1.9 kg/m3 | 778.02 ± 1.9 kg/m3 | 778.83 ± 1.9 kg/m3 | 784.24 ± 1.9 kg/m3 | 791.62 ± 1.8 kg/m3 | 775.32 ± 1.9 kg/m3 | 775.16 ± 1.9 kg/m3 | 776.11 ± 1.9 kg/m3 | 781.91 ± 1.9 kg/m3 | 789.98 ± 1.9 kg/m3 | 772.48 ± 1.9 kg/m3 | 772.21 ± 1.9 kg/m3 | 773.38 ± 1.9 kg/m3 | 779.58 ± 1.9 kg/m3 | 787.77 ± 1.9 kg/m3 | specific heat capacity ([2]; 308.65 K, c1 = 0.005): 2520.9 ± 50 J/K/kg; specific heat capacity ([2]; 308.65 K, c1 = 0.01): 2545.7 ± 51 J/K/kg; specific heat capacity ([2]; 308.65 K, c1 = 0.02): 2549.3 ± 51 J/K/kg; specific heat capacity ([2]; 308.65 K, c1 = 0.05): 2555.5 ± 51 J/K/kg; specific heat capacity ([2]; 308.65 K, c1 = 0.1): 2570 ± 51 J/K/kg; specific heat capacity ([2]; 311.65 K, c1 = 0.005): 2581.5 ± 52 J/K/kg; specific heat capacity ([2]; 311.65 K, c1 = 0.01): 2600.7 ± 52 J/K/kg; specific heat capacity ([2]; 311.65 K, c1 = 0.02): 2606.3 ± 52 J/K/kg; specific heat capacity ([2]; 311.65 K, c1 = 0.05): 2607.1 ± 52 J/K/kg; specific heat capacity ([2]; 311.65 K, c1 = 0.1): 2623 ± 52 J/K/kg; specific heat capacity ([2]; 314.65 K, c1 = 0.005): 2627.1 ± 52 J/K/kg; specific heat capacity ([2]; 314.65 K, c1 = 0.01): 2638.3 ± 53 J/K/kg; specific heat capacity ([2]; 314.65 K, c1 = 0.02): 2650.8 ± 53 J/K/kg; specific heat capacity ([2]; 314.65 K, c1 = 0.05): 2650 ± 53 J/K/kg; specific heat capacity ([2]; 314.65 K, c1 = 0.1): 2633.7 ± 53 J/K/kg
6 | [Cl-].c1ccc([P+](c2ccccc2)(c2ccccc2)c2ccccc2)cc1 [tetraphenylphosphonium chloride] + CO |  |  |  |  |  | 776.52 ± 1.9 kg/m3 | 779.51 ± 1.9 kg/m3 | 780.37 ± 1.9 kg/m3 | 787.22 ± 1.9 kg/m3 | 793.29 ± 1.8 kg/m3 | 774.51 ± 1.9 kg/m3 | 778.81 ± 1.9 kg/m3 | 777.85 ± 1.9 kg/m3 | 784.14 ± 1.9 kg/m3 | 790.42 ± 1.9 kg/m3 | 771.62 ± 1.9 kg/m3 | 775.7 ± 1.9 kg/m3 | 774.95 ± 1.9 kg/m3 | 782.06 ± 1.9 kg/m3 | 788.49 ± 1.9 kg/m3 | specific heat capacity ([2]; 308.65 K, c1 = 0.005): 2543.2 ± 51 J/K/kg; specific heat capacity ([2]; 308.65 K, c1 = 0.01): 2548.5 ± 51 J/K/kg; specific heat capacity ([2]; 308.65 K, c1 = 0.02): 2556.9 ± 51 J/K/kg; specific heat capacity ([2]; 308.65 K, c1 = 0.05): 2605.5 ± 52 J/K/kg; specific heat capacity ([2]; 308.65 K, c1 = 0.1): 2660.8 ± 53 J/K/kg; specific heat capacity ([2]; 311.65 K, c1 = 0.005): 2564.1 ± 51 J/K/kg; specific heat capacity ([2]; 311.65 K, c1 = 0.01): 2565.8 ± 51 J/K/kg; specific heat capacity ([2]; 311.65 K, c1 = 0.02): 2582.9 ± 52 J/K/kg; specific heat capacity ([2]; 311.65 K, c1 = 0.05): 2628.9 ± 53 J/K/kg; specific heat capacity ([2]; 311.65 K, c1 = 0.1): 2691.7 ± 54 J/K/kg; specific heat capacity ([2]; 314.65 K, c1 = 0.005): 2570.9 ± 51 J/K/kg; specific heat capacity ([2]; 314.65 K, c1 = 0.01): 2605.9 ± 52 J/K/kg; specific heat capacity ([2]; 314.65 K, c1 = 0.02): 2599.5 ± 52 J/K/kg; specific heat capacity ([2]; 314.65 K, c1 = 0.05): 2637.3 ± 53 J/K/kg; specific heat capacity ([2]; 314.65 K, c1 = 0.1): 2721.3 ± 54 J/K/kg
7 | [Cl-].c1ccc([P+](c2ccccc2)(c2ccccc2)c2ccccc2)cc1 [tetraphenylphosphonium chloride] + O |  |  |  |  |  | 994.05 ± 0.54 kg/m3 | 995.67 ± 0.53 kg/m3 | 998.12 ± 0.52 kg/m3 | 996.84 ± 0.53 kg/m3 | 1001.06 ± 0.52 kg/m3 | 993.46 ± 0.54 kg/m3 | 994.88 ± 0.54 kg/m3 | 996.99 ± 0.52 kg/m3 | 995.58 ± 0.53 kg/m3 | 997.28 ± 0.53 kg/m3 | 991.77 ± 0.56 kg/m3 | 992.33 ± 0.55 kg/m3 | 995.43 ± 0.53 kg/m3 | 994.11 ± 0.54 kg/m3 | 995.93 ± 0.53 kg/m3 | specific heat capacity ([2]; 308.65 K, c1 = 0.005): 4202.5 ± 84 J/K/kg; specific heat capacity ([2]; 308.65 K, c1 = 0.01): 4203.6 ± 84 J/K/kg; specific heat capacity ([2]; 308.65 K, c1 = 0.02): 4207 ± 84 J/K/kg; specific heat capacity ([2]; 308.65 K, c1 = 0.05): 4217.3 ± 84 J/K/kg; specific heat capacity ([2]; 308.65 K, c1 = 0.1): 4229.9 ± 85 J/K/kg; specific heat capacity ([2]; 311.65 K, c1 = 0.005): 4203.6 ± 84 J/K/kg; specific heat capacity ([2]; 311.65 K, c1 = 0.01): 4206.5 ± 84 J/K/kg; specific heat capacity ([2]; 311.65 K, c1 = 0.02): 4209.8 ± 84 J/K/kg; specific heat capacity ([2]; 311.65 K, c1 = 0.05): 4218.4 ± 84 J/K/kg; specific heat capacity ([2]; 311.65 K, c1 = 0.1): 4241.9 ± 85 J/K/kg; specific heat capacity ([2]; 314.65 K, c1 = 0.005): 4203.8 ± 84 J/K/kg; specific heat capacity ([2]; 314.65 K, c1 = 0.01): 4208.4 ± 84 J/K/kg; specific heat capacity ([2]; 314.65 K, c1 = 0.02): 4211.1 ± 84 J/K/kg; specific heat capacity ([2]; 314.65 K, c1 = 0.05): 4219.7 ± 84 J/K/kg; specific heat capacity ([2]; 314.65 K, c1 = 0.1): 4244.7 ± 85 J/K/kg
8 | O [water] + [Cl-].c1ccc([P+](c2ccccc2)(c2ccccc2)c2ccccc2)cc1 | 993.13 ± 0.55 kg/m3 | 991.68 ± 0.56 kg/m3 | 4182 ± 84 J/K/kg | 4182.2 ± 84 J/K/kg | 4182.4 ± 84 J/K/kg |  |  |  |  |  |  |  |  |  |  |  |  |  |  |  | 
